Measurements as given in BindingDB's records for doi:10.1016/j.ejmech.2017.04.043 (University of Illinois At Chicago, 2017).

Molecular target: T1, Gamma-aminobutyric acid receptor subunit alpha-1/beta-2/gamma-2 (Homo sapiens, UniProt P14867+P18507+P47870)
T1 sequence (P14867 whole entry): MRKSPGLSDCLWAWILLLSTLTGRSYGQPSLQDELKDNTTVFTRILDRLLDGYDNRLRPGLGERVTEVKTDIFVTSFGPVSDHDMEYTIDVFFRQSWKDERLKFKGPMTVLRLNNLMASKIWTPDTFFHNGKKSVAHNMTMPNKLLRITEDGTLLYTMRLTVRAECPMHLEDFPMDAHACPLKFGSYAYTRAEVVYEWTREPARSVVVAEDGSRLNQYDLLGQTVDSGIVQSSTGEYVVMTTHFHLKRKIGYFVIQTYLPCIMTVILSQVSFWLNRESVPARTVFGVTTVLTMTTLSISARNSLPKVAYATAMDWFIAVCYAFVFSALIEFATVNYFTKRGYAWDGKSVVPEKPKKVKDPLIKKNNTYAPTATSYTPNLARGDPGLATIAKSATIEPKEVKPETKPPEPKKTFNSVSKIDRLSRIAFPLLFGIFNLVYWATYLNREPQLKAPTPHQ
T1 sequence (P18507 whole entry): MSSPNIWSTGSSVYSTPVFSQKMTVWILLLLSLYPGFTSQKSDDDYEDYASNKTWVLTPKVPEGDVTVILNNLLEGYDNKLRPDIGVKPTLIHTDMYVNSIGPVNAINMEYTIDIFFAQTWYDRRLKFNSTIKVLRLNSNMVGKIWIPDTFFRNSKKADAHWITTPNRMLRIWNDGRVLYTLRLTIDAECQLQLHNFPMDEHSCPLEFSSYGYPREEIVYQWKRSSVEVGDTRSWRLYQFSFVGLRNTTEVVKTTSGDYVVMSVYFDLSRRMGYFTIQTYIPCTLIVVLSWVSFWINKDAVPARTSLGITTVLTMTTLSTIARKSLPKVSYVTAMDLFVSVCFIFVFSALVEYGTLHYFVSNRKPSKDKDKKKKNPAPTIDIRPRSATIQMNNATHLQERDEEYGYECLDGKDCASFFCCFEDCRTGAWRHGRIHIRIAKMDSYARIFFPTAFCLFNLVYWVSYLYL
T1 sequence (P47870 whole entry): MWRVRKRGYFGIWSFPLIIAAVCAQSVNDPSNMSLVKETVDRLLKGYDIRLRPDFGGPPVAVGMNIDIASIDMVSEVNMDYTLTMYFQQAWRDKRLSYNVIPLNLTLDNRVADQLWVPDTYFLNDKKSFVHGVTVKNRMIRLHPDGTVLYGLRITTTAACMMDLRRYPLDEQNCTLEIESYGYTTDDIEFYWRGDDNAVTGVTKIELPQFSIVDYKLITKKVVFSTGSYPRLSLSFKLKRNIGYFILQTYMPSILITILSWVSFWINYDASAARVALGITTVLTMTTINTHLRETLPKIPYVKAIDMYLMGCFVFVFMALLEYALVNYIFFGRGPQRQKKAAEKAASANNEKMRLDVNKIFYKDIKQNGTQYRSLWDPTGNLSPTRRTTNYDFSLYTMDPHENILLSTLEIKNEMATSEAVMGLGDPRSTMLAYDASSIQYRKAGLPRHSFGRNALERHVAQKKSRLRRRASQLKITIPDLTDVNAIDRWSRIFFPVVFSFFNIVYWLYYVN
Assay: Positive allosteric modulation of human GABAA receptor alpha1beta2gamma2L expressed in Xenopus laevis oocytes assessed as potentiation of GABA-induced current by measuring GABA EC50 at 1.4 uM incubated for 15 to 25 secs by two-electrode voltage clamp assay (Rvb = […])

Row | Compound | EC50
1 | CC(=O)[C@H]1CC[C@H]2[C@@H]3CC[C@H]4C[C@H](O)CC[C@]4(C)[C@H]3C3(C[C@]12C)N=N3 | 1230 nM
2 | CC(=O)[C@H]1CC[C@H]2[C@@H]3CC[C@H]4C[C@H](O)CC[C@]4(C)[C@H]3[C@@H](OC(=O)c3c(F)c(F)c(N=[N+]=[N-])c(F)c3F)C[C@]12C | 70 nM
